Results published in US20150050734A1, “Carbon Nanotubes And Methods Of Use” (DUKE UNIVERSITY, priority 2012, published 2015).
“Also recorded” adds a separate entry of the source.

Legend:
primary cortical neurons = assay: Clomeleon-based ratiometric chloride imaging; type: cell-based, rat; details: for effect on neuronal [Cl−]i: KN93 1 μM
Protocol: The preparation of primary cortical neurons was adapted from a previous protocol. […] Briefly, cortices were microdissected from embryonic rats (E18) or mice (E16.5).
The tissue was dissociated using papain, followed by mechanical dissociation. Cytosine arabinoside (2.5 μM) was added to cultures to inhibit the proliferation of non-neuronal cells. Cell suspension was plated at a density of 10^6 cells mL^−1 onto tissue-culture dishes. 12 mm-diameter matrix-covered glass coverslips were contained in tissue culture dishes, typically n=3.

KCC2 = KCC2 immunocytochemistry / densitometry in cultured neurons; type: cell-based, rat; details: KN93 1 μM
Protocol: Confocal fluorescence imaging was conducted after immunolabeling for β3-tubulin (mouse monoclonal antibody; 1:200, Iowa hybridoma bank, Iowa City, United States), and KCC2 (rabbit polyclonal antibody; Abcam; 1:200). Id.. Fluorescently labeled sections were visualized in a Zeiss LSM710 (Carl Zeiss AG, Oberkochen, Germany) confocal imaging suite with lasers tuned to the […] spectra of the secondary fluorescent antibodies (coupled to Alexa-488 and Alexa-595 dyes), as described previously. Li, J. et al. (2011) Environ Health Perspect 119:784-793.
Morphometry for confocal and light-microscopy acquired images was conducted as previously described. Yeo, M. et al. (2009) J. Neurosci 29:14652-14662.

SMILES | effect on acceleration of the chloride shift and upregulation of KCC2 (primary cortical neurons; KN62 1 μM, fwCNT-cultured primary neurons) | effect on KCC2 expression (KCC2; Au-cultured neurons) | effect on KCC2 upregulation (KCC2; fwCNT-cultured neurons) | effect on neuronal [Cl−]i (primary cortical neurons; Au-cultured neurons) | effect on neuronal [Cl−]i (primary cortical neurons; fwCNT-cultured neurons)
CN([C@@H](Cc1ccc(OS(=O)(=O)c2cccc3cnccc23)cc1)C(=O)N1CCN(c2ccccc2)CC1)S(=O)(=O)c1cccc2cnccc12 [KN62] | Dependence of acceleration of the chloride shift and upregulation of KCC2 | – | – | – | –
COc1ccc(S(=O)(=O)N(CCO)c2ccccc2CN(C)C/C=C/c2ccc(Cl)cc2)cc1 [KN93] | – | modest reduction; also recorded: relative lack effect | strict dependence | also not on Au-cultured neurons | specific and powerful effect
